Data: article PMC3887211, “Automethylation Activities within the Mixed Lineage Leukemia-1 (MLL1) Core Complex Reveal Evidence Supporting a “Two-active Site” Model for Multiple Histone H3 Lysine 4 Methylation” (The Journal of Biological Chemistry, 2013)

Key:
[1] = biological target: T1, MLL1 core complex (MWRAD) (Homo sapiens, UniProt Q03164); conditions: labelled compound; no histone H3; pH 8.5, 15 °C; intra-complex methylation of Ash2L by MLL1 SET domain
T1 construct: gene KMT2A

[2] = biological target: T2, MLL1 SET domain (MLL^3745) (Homo sapiens, UniProt Q03164); assay: [3H]methyl transfer to H3 peptide, streptavidin pull-down, liquid scintillation counting; type: biochemical; conditions: histone H3 peptide (1-20)-GGK-biotin 500 μM fixed; 7 μM MLL1; 0-100 μM labelled compound; assay buffer pH 8.5, 15 °C; construct of MLL1 not stated for this assay; read-out: apparent Km
T2 construct: gene KMT2A; C-terminal Win motif + SET domain, residues 3745-3969, 26 kDa, expressed in E. coli as GST fusion

[3] = biological target: T3, MBP-Trithorax SET domain (Drosophila melanogaster, UniProt P20659); assay: [3H]methyl transfer (automethylation and H3 methylation), SDS-PAGE fluorography; type: biochemical; conditions: labelled compound; with or without histone H3 peptide (1-20); pH 8.5, 15 °C
T3 construct: gene trx; SET domain as MBP fusion from E. coli
T3 sequence (P20659 3588-3726 limits assumed): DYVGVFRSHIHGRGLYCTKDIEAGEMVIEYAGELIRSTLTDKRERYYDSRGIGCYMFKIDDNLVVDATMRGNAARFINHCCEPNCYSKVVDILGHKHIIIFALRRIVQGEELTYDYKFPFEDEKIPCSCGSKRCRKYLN

[4] = biological target: T4, WRAD (Homo sapiens, UniProt Q15291+Q9UBL3); conditions: labelled compound, no MLL1
T4 construct: gene ASH2L
T4 sequence (Q9C005 whole entry): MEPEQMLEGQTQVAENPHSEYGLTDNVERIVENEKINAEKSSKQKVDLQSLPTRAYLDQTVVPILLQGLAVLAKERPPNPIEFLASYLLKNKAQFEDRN
T4 sequence (Q15291 whole entry): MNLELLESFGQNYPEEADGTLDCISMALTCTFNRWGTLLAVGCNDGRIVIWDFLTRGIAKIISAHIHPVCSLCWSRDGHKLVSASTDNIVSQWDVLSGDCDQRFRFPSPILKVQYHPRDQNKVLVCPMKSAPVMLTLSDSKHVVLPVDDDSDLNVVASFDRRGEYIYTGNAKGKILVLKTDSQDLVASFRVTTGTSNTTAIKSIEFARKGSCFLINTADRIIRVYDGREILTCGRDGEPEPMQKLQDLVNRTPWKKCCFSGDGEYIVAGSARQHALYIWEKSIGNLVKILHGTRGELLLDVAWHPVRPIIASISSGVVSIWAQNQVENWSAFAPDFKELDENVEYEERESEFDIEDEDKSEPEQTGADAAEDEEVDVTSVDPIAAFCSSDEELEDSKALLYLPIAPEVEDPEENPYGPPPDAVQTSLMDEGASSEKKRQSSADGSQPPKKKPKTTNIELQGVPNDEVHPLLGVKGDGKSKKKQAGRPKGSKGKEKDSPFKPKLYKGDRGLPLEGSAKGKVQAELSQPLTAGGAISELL
T4 sequence (Q9UBL3 whole entry): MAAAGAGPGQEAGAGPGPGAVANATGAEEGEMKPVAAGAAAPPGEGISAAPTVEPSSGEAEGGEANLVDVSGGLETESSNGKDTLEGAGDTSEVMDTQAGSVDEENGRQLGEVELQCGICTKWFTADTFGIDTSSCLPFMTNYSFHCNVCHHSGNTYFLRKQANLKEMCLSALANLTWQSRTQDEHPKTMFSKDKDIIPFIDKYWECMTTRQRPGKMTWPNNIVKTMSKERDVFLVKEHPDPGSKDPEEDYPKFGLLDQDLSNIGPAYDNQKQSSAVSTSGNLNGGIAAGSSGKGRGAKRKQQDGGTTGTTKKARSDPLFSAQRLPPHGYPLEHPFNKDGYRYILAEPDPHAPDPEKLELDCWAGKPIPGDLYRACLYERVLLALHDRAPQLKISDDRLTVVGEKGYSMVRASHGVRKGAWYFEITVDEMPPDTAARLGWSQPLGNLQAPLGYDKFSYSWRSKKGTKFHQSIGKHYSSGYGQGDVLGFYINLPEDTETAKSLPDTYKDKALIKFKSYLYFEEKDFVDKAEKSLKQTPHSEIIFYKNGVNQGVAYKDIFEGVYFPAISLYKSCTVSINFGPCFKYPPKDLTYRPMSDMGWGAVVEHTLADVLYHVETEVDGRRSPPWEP

T1 sequence (Q9C005 whole entry, the tested form may be a part): as the sequence (Q9C005 whole entry) above
T1 sequence (Q9UBL3 whole entry, further chain, the tested form may be a part): as the sequence (Q9UBL3 whole entry) above
T1 sequence (Q03164 3745-3969): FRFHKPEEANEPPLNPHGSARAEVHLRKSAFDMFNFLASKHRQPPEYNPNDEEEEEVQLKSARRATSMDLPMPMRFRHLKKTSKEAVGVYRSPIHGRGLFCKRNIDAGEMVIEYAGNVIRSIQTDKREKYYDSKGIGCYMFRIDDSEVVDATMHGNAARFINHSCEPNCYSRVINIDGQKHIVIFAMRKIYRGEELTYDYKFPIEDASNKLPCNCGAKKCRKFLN
T1 sequence (Q15291 whole entry, further chain, the tested form may be a part): as the sequence (Q15291 whole entry) above
T2 sequence (Q03164 3745-3969): as the sequence (Q03164 3745-3969) above

Km [2]: 10.4 ± 3.1 µM
SMILES: C[S+](CC[C@H](N)C(=O)O)C[C@H]1O[C@@H](n2cnc3c(N)ncnc32)[C@H](O)[C@@H]1O (stereo partly shown) [AdoMet]
[3H]methyl transfer to Ash2L, SDS-PAGE fluorography [1]: Ash2L methylation is dependent on the catalytic activity of the MLL1 SET domain
[3H]methyl transfer (automethylation and H3 methylation), SDS-PAGE fluorography [3]: MBP-Trithorax SET domain is enzymatically active and undergoes automethylation in the absence of histone H3
[3H]methyl transfer to histone H3 peptide, SDS-PAGE fluorography [4]: despite significant histone H3 methylation by WRAD, no Ash2L methylation was observed
